Data published in patent US10087169B2, “Bicyclic PKM2 activators” (Agios Pharmaceuticals, Inc., priority 2010, dated 2018).

Target: PKM2 (Homo sapiens, UniProt P14618)
Experiment: PKM2 Assay
Assay type: biochemical
Settings: activation of PKM2; Tables 1-4
Procedure: • PKM2 stock enzyme solution was diluted in Reaction Buffer • 2 μL of compound was added into each well first, and then 180 μL of the Reaction Mix was added. • Reaction mixture with compound (without ADP) was incubated for 30 minutes at 4° C. • Plates were re-equilibrated to room temperature prior to adding 20 μL ADP to initiate the reaction. • Reaction progress was measured as changes in absorbance at 340 nm wavelength at room temperature (25° C.) Reaction Mix:
PKM2 (50 ng/well), ADP (0.7 mM), PEP (0.15 mM), NADH (180 μM), LDH (2 units) in Reaction Buffer

Chain of PKM2 (P14618 whole entry): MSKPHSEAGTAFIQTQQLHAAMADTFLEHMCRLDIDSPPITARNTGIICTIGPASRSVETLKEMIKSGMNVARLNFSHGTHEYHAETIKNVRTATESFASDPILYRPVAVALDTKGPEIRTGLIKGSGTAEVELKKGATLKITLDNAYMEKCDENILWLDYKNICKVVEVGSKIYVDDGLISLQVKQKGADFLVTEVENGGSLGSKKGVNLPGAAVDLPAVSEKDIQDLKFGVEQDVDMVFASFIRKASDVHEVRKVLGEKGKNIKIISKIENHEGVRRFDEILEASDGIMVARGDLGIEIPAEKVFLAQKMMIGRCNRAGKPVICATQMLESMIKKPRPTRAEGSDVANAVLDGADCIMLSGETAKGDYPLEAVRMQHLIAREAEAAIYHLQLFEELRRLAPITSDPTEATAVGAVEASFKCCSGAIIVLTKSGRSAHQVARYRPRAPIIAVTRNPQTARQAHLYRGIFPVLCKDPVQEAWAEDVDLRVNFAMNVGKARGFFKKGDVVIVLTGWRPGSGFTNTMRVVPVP

Row | Compound | AC50 [nM]
1 | Cc1cc(NS(=O)(=O)c2ccc3c(c2)N(C)C(=O)OC3)ccc1F | < 100
2 | CN1C(=O)OCc2ccc(S(=O)(=O)Nc3ccc(F)c(Cl)c3)cc21 | < 100
3 | CN1C(=O)OCc2cc(S(=O)(=O)Nc3ccc(F)c(Cl)c3)ccc21 | 100 to 500
4 | Cc1cc(NS(=O)(=O)c2ccc3c(c2)COC(=O)N3C)ccc1F | 100 to 500
5 | CN1Cc2cc(S(=O)(=O)Nc3ccc(F)c(Cl)c3)ccc2OC1=O | 100 to 500
6 | Cc1cc(NS(=O)(=O)c2ccc3c(c2)CN(C)C(=O)O3)ccc1F | 100 to 500
7 | O=C1Oc2ccc(S(=O)(=O)Nc3ccc(F)c(Cl)c3)cc2CN1Cc1ccccc1 | > 500
8 | Cc1cc(C)cc(NS(=O)(=O)c2ccc3c(c2)N(C)C(=O)CO3)c1 | < 100
9 | COc1ccc(NS(=O)(=O)c2ccc3c(c2)N(C)C(=O)CO3)cc1 | > 500
10 | CN1CC(=O)Oc2ccc(S(=O)(=O)Nc3cccc(Cl)c3)cc21 | < 100
11 | Cc1cc(NS(=O)(=O)c2ccc3c(c2)N(C)CC(=O)O3)ccc1F | < 100
12 | CN1CC(=O)Oc2ccc(S(=O)(=O)Nc3ccc(F)c(Cl)c3)cc21 | < 100

Now from value to compound:

Row | AC50 [nM] | Compound
13 | > 500 | Cc1cc(C)cc(NS(=O)(=O)c2ccc3c(c2)NC(=O)CO3)c1
14 | > 500 | O=C1COc2ccc(S(=O)(=O)Nc3ccc(F)cc3)cc2N1
15 | > 500 | O=C1COc2ccc(S(=O)(=O)Nc3ccc4c(c3)OCCO4)cc2N1
16 | > 500 | COc1ccc(NS(=O)(=O)c2ccc3c(c2)NC(=O)CO3)cc1
17 | > 500 | CN1C(=O)COc2ccc(S(=O)(=O)Nc3ccc4c(c3)OCCO4)cc21
18 | > 500 | CN1C(=O)COc2ccc(S(=O)(=O)Nc3ccc(F)cc3)cc21
19 | < 100 | Cc1cc(NS(=O)(=O)c2ccc3c(c2)N(C)C(=O)CO3)ccc1F
20 | < 100 | CN1C(=O)COc2ccc(S(=O)(=O)Nc3ccc(F)c(Cl)c3)cc21
21 | < 100 | CN1C(=O)COc2ccc(S(=O)(=O)Nc3cccc(Cl)c3)cc21
22 | < 100 | CN1C(=O)COc2ccc(S(=O)(=O)Nc3ccc4c(c3)OCO4)cc21
